{"source": "the supplement of paper PMC11208160"}
{"assay": "recombinant UMI read abundance after kanamycin selection (control-corrected) (log10(CPM+1)); higher = more efficient recombination; extreme values may be limits of the assay; sequences stand for … in AGTGCAGAGAAAATCGGCCAGTTTTCTCTGCCTGCAGTCCGCATGCCGTGGGACCCCTTGGGTTCTAACCTGTTGCCTAGATTTATGCAGCGGACTGCCTTTCTCCCAAAGTGATAAACCGG…AGGTTGGTTTCACT; site = the 11-nt donor", "procedure,_shortened": "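Sequenced counts of recombinant UMIs were turned into CPM, averaged across replicates and scaled with control-derived factors. The reported figure is log10(CPM+1). Those UMIs, each 12 nt long, tagged donor and donor-binding-loop pairs on a plasmid with a promoterless kanamycin gene, screened as a pool in Escherichia coli with IPTG (0.07 mM) plus kanamycin or without selection.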"}
{"sequence": "AGAACCGCATGGACCGGTTTTCCCGGTAATCCGTATTTGAC (site AGAACCGCTGT)", "recombinant UMI read abundance (log10)": 2.35}
{"sequence": "TAGGGATCATGGACCGGTTTTCCCGGTAATCCGTATTTGCT (site TAGGGATCTAG)", "recombinant UMI read abundance (log10)": 2.31}
{"sequence": "CTTCTCTCATGGACCGGTTTTCCCGGTAATCCGTATTTGTG (site CTTCTCTCTTA)", "recombinant UMI read abundance (log10)": 0}
{"sequence": "CCCTCCTCATGGACCGGTTTTCCCGGTAATCCGTATTTGCC (site CACTCCTCTGG)", "recombinant UMI read abundance (log10)": 0.544}
{"sequence": "TGCGTGTCATGGACCGGTTTTCCCGGTAATCCGTATTTGCC (site TGCGTGTCTGG)", "recombinant UMI read abundance (log10)": 2.33}
{"sequence": "ACACGAACATGGACCGGTTTTCCCGGTAATCCGTATTTGAC (site ACACGAACTGG)", "recombinant UMI read abundance (log10)": 1.33}
{"sequence": "CGGCAGACATGGACCGGTTTTCCCGGTAATCCGTATTTGGT (site CGGCAGACTAC)", "recombinant UMI read abundance (log10)": 1.9}
{"sequence": "CGAAAGGCATGGACCGGTTTTCCCGGTAATCCGTATTTGCT (site GGAAAGGCTAG)", "recombinant UMI read abundance (log10)": 0}
{"sequence": "TCGCCATCATGGACCGGTTTTCCCGGTAATCCGTATTTGGC (site GAAGGCCCTAG)", "recombinant UMI read abundance (log10)": 0}
{"sequence": "CAATGCTCATGGACCGGTTTTCCCGGTAATCCGTATTTGAA (site CAATGGTCTTT)", "recombinant UMI read abundance (log10)": 0.0124}
{"sequence": "CGATCATCATGGACCGGTTTTCCCGGTAATCCGTATTTGCT (site CGATGGTCTAG)", "recombinant UMI read abundance (log10)": 0}
{"sequence": "CGAGCATCATGGACCGGTTTTCCCGGTAATCCGTATTTGCT (site CGAGCATCTAG)", "recombinant UMI read abundance (log10)": 1.79}
{"sequence": "GTAGCTACATGGACCGGTTTTCCCGGTAATCCGTATTTGAC (site GTAGCTACTGT)", "recombinant UMI read abundance (log10)": 2.4}
{"sequence": "CGCTAGACATGGACCGGTTTTCCCGGTAATCCGTATTTGAG (site CGTTAGACTCT)", "recombinant UMI read abundance (log10)": 0.00455}
{"sequence": "GCCGCGCCATGGACCGGTTTTCCCGGTAATCCGTATTTGTA (site GCCCCGCCTTA)", "recombinant UMI read abundance (log10)": 0.00531}
{"sequence": "GCCCACCCATGGACCGGTTTTCCCGGTAATCCGTATTTGTT (site GACCACCCTAA)", "recombinant UMI read abundance (log10)": 0.0217}
{"sequence": "CGATCATCATGGACCGGTTTTCCCGGTAATCCGTATTTGCT (site CGATCATCTGT)", "recombinant UMI read abundance (log10)": 0}
{"sequence": "CGTTAGACATGGACCGGTTTTCCCGGTAATCCGTATTTGAC (site CGTTAGACTAT)", "recombinant UMI read abundance (log10)": 0.0518}
{"sequence": "TTTAAAGCATGGACCGGTTTTCCCGGTAATCCGTATTTGAC (site TTTAAAGCTGT)", "recombinant UMI read abundance (log10)": 0}
{"sequence": "CGATAATCATGGACCGGTTTTCCCGGTAATCCGTATTTGCG (site CGATAATCTCG)", "recombinant UMI read abundance (log10)": 3.34}
{"sequence": "AGCACGACATGGACCGGTTTTCCCGGTAATCCGTATTTGCA (site AGGAAGACTTG)", "recombinant UMI read abundance (log10)": 0}
{"sequence": "CGATCTTCATGGACCGGTTTTCCCGGTAATCCGTATTTGCT (site CGATCGTCTAG)", "recombinant UMI read abundance (log10)": 0.00569}
{"sequence": "ATTGAGCCATGGACCGGTTTTCCCGGTAATCCGTATTTGGT (site ATTGAGACTAC)", "recombinant UMI read abundance (log10)": 0.00491}
{"sequence": "CGTTGTCCATGGACCGGTTTTCCCGGTAATCCGTATTTGAA (site CGTTGTCCTTT)", "recombinant UMI read abundance (log10)": 0.00747}
{"sequence": "CCCCGCACATGGACCGGTTTTCCCGGTAATCCGTATTTGTA (site CCCCGCACTTA)", "recombinant UMI read abundance (log10)": 1.16}
{"sequence": "CAAGCGCCATGGACCGGTTTTCCCGGTAATCCGTATTTGTG (site CAAGCGCCTCG)", "recombinant UMI read abundance (log10)": 1.36}
{"sequence": "GGGAAGACATGGACCGGTTTTCCCGGTAATCCGTATTTGCA (site GGGAAGACTTG)", "recombinant UMI read abundance (log10)": 1.96}
{"sequence": "CGTTACACATGGACCGGTTTTCCCGGTAATCCGTATTTGAG (site CGTTAAACTCT)", "recombinant UMI read abundance (log10)": 0.00268}
{"sequence": "ATTCATGCATGGACCGGTTTTCCCGGTAATCCGTATTTGGT (site ATTCATGCTAC)", "recombinant UMI read abundance (log10)": 0.729}
{"sequence": "GAGCTCGCATGGACCGGTTTTCCCGGTAATCCGTATTTGAT (site GAGCTCCCTAT)", "recombinant UMI read abundance (log10)": 0.626}
{"sequence": "TAGAATACATGGACCGGTTTTCCCGGTAATCCGTATTTGCA (site TAGAATACTTA)", "recombinant UMI read abundance (log10)": 0}
{"sequence": "GTTCGTGCATGGACCGGTTTTCCCGGTAATCCGTATTTGCA (site GTTCGCGCTTG)", "recombinant UMI read abundance (log10)": 0.0038}
